Results as given in patent US5798381A, “Biologically active bistramides, process for their production and their applications in therapy” (Institut Francais de Recherche Scientifique pour le …, priority 1993, dated 1998).
Like-named read-outs stand apart in the source and are kept apart here.

What was measured:
[1] = system: Plasmodium vinckei petteri; experiment: Comparison of monodose and multidose therapeutic schema; assay type: in vivo, Plasmodium vinckei petteri in SWISS female white mice
Procedure: The object is to monitor the parasitemia on a daily basis and to evaluate the inhibition of the parasitemia according to the therapeutic schema adopted for the treatment. The following are shown: the morphological modifications of the parasite by the parasitic formula, calculation of the parasitic formula is also carried out on smears and allows the evaluation of each stage:ring, young trophozoite, middle trophozoite, old trophozite for 100 red blood corpuscles.
a) after infestation, three batches of five mice are constituted, namely
a so-called monodose batch, for which a single injection of bistramide D (15 mg/kg) is given to the mouse on D0
a so-called multidose batch, where the injection of bistramide D is carried out by administering five doses on D0, D1, D2, D3, D4 respectively (total dose 15 mg/kg)
b) the preparation and reading of the smears is carried out every day for 21 days.
The percentage of parasitemia and the percentage inhibition of the development of the parasite is determined for each batch.

L.(L) donovani = experiment: Anti-leishmanial activity in vitro; assay type: cell-based; settings: 500 μg/ml
[2] = system: NSCLC solid tumours (xenograft); assay type: in vivo, nude mouse; settings: at the end of 30 days
Procedure: The anti-tumoural activity of the products of the invention was studied against solid tumours of NSCLC type grafted onto a nude mouse (D. Riou, C. Roussakis, J. F. Biard, J. F. Verbist: "Comparative study of antitumor activity of bistramides A, D and K against non-small cell bronchopulmonary carcinoma", Anticancer Research, 1993, 13, 2321-2334). Each mouse received 0.2 ml of a cell solution obtained by the mechanical dispersion of about 1 g of excised mouse tumour in 4.8 ml of a sterile saline solution. The sub-cutaneous grafted tumours were measured over their long length L and their short length 1. The tumoural volume was evaluated according to the formula Vt=L×1^2 /2. The tumoural growth on day d was calculated by the formula Vtd /Vtd0 for each mouse, Vtd0 being the tumoural volume at the start of treatment.
The curve "------.circle-solid.------ " relates to the control experiment, the curves "--- .diamond-solid.---", "-- .quadrature.--" and "-- .box-solid.--" to experiments with 10, 20 and 5 mg/kg of bistramide D respectively and the curve "----*----" to an experiment with 10 mg/kg of bistramide K. Each point represents the average tumoural growth for 6 mice.
In these experiments, bistramide K is injected at the rate of 10 mg/kg by intraperitoneal route for 16 days and bistramide D at the rate of 5 mg/kg by intraperitoneal route every day for 16 days; at 10 mg/kg by intravenous route on days 1, 5, 9, 14, and at 20 mg/kg by intravenous route on days 1, 5, 9, 14.

In the case of `C/C=C/C(O)CC1CCC(C)C(CC(=O)NCC(O)C(C)C(=O)NCCCC2OC3(CCCC(CCC(C)/C=C(\C)C(C)O)O3)CCC2C)O1` (stereo not drawn) [Bistramide D], the “percentage inhibition of the development of the parasite” value (shortened to “percentage inhibition”) ([1]; Monodose (15 mg/kg on D0), D3) is reported as 51.5%, the parasitemia ([1]; Monodose (15 mg/kg on D0), D3, controls 0.33) is reported as 0.16% and the “percentage inhibition” value ([1]; Monodose (15 mg/kg on D0), D4) is reported as 33.3%. The parasitemia ([1]; Monodose (15 mg/kg on D0), D4, controls 1.2) was 0.80%, the “percentage inhibition” value ([1]; Monodose (15 mg/kg on D0), D5) was 36.3% and the parasitemia ([1]; Monodose (15 mg/kg on D0), D5, controls 5.5) was 3.5%. For the same compound, the “percentage inhibition” value ([1]; Monodose (15 mg/kg on D0), D7) was 0%, the parasitemia ([1]; Monodose (15 mg/kg on D0), D7, controls 50) was 64% and the “percentage inhibition” value ([1]; Monodose (15 mg/kg on D0), D8) was 16.4%. The parasitemia ([1]; Monodose (15 mg/kg on D0), D8, controls 67) was 56%, the “percentage inhibition” value ([1]; Monodose (15 mg/kg on D0), D9) was 12.5% and the parasitemia ([1]; Monodose (15 mg/kg on D0), D9, controls 48) was 42%. The “percentage inhibition” value ([1]; Monodose (15 mg/kg on D0), D10) was 0%, the parasitemia ([1]; Monodose (15 mg/kg on D0), D10, controls 1) was 1% and the “parasitic formula, old trophozoite (OT)” value ([1]; Monodose, D5, control 3%) was 9%. The “parasitic formula, middle trophozoite (MT)” value (“parasitic formula … (MT)” for short) ([1]; Monodose, D5, control 7%) was 14%, the “parasitic formula, young trophozoite (YT)” value (from here on “parasitic formula … (YT)”) ([1]; Monodose, D5, control 17.5%) was 37% and the “parasitic formula, ring stage (R)” value ([1]; Monodose, D5, control 72.5%) was 40%. The “parasitic formula, old trophozoite (OT)” value ([1]; Monodose, D7, control 10%) was 6%, the “parasitic formula … (MT)” value ([1]; Monodose, D7, control 15%) was 14% and the “parasitic formula … (YT)” value ([1]; Monodose, D7, control 17%) was 31%. The “parasitic formula, ring stage (R)” value ([1]; Monodose, D7, control 58%) was 47%, the “parasitic formula, old trophozoite (OT)” value ([1]; Multidose, D5, control 3%) was 7% and the “parasitic formula … (MT)” value ([1]; Multidose, D5, control 7%) was 40%. The “parasitic formula … (YT)” value ([1]; Multidose, D5, control 17.5%) was 28%, the “parasitic formula, ring stage (R)” value ([1]; Multidose, D5, control 72.5%) was 25% and the “parasitic formula, old trophozoite (OT)” value ([1]; Multidose, D7, control 10%) was 93%. The “parasitic formula … (MT)” value ([1]; Multidose, D7, control 15%) was 0%, the “parasitic formula … (YT)” value ([1]; Multidose, D7, control 17%) was 0% and the “parasitic formula, ring stage (R)” value ([1]; Multidose, D7, control 58%) was 7%. For the same compound, the “percentage inhibition” value ([1]; Multidoses (D0-D4, total 15 mg/kg), D3) was 63.6%, the parasitemia ([1]; Multidoses (D0-D4, total 15 mg/kg), D3, controls 0.33) was 0.12% and the “percentage inhibition” value ([1]; Multidoses (D0-D4, total 15 mg/kg), D4) was 83.3%. For the same compound, the parasitemia ([1]; Multidoses (D0-D4, total 15 mg/kg), D4, controls 1.2) was 0.2%, the “percentage inhibition” value ([1]; Multidoses (D0-D4, total 15 mg/kg), D5) was 70.9% and the parasitemia ([1]; Multidoses (D0-D4, total 15 mg/kg), D5, controls 5.5) was 1.6%. For the same compound, the “percentage inhibition” value ([1]; Multidoses (D0-D4, total 15 mg/kg), D7) was 85.2%, the parasitemia ([1]; Multidoses (D0-D4, total 15 mg/kg), D7, controls 50) was 7.4% and the “percentage inhibition” value ([1]; Multidoses (D0-D4, total 15 mg/kg), D8) was 0%. For the same compound, the parasitemia ([1]; Multidoses (D0-D4, total 15 mg/kg), D8, controls 67) was 74%, the “percentage inhibition” value ([1]; Multidoses (D0-D4, total 15 mg/kg), D9) was 0% and the parasitemia ([1]; Multidoses (D0-D4, total 15 mg/kg), D9, controls 48) was 67%. The “percentage inhibition” value ([1]; Multidoses (D0-D4, total 15 mg/kg), D10) was 0%, the parasitemia ([1]; Multidoses (D0-D4, total 15 mg/kg), D10, controls 1) was 30% and the “duration of the action” value ([1]; after last injection on D4, multidose batch) was “about 3 days”. For the same compound, the “effect on Plasmodium from D8” value ([1]; from D8) was “apparently being no longer effected”, the “parasitemia of monodose batch versus control batch” value ([1]; monodose batch, D4) was “no difference is observed” and the anti-leishmanial activity (L.(L) donovani) was “has an anti-leishmanial activity in vitro”. For the same compound, the “tumoural growth relative to controls (100%)” value ([2]; 5 mg/kg, IP, every day for 16 days) was 100%, the “tumoural growth relative to controls (100%)” value ([2]; 10 mg/kg, IV, days 1, 5, 9, 14) was 76% and the “tumoural growth relative to controls (100%)” value ([2]; 20 mg/kg, IV, days 1, 5, 9, 14) was 53%.
